# System: A375 (melanoma) cells
# Assay: Proliferation Assay (CellTiter-Glo)
# Assay type: cell-based
# Conditions: 3 days incubation, CellTiter-Glo luminescence
# Experimental: A375 (melanoma), Colo-205 (colon cancer), Miapaca (pancreatic), HPAFII (pancreatic), sNF02.0 (neurofibromatosis type 1), sNF96.2 (neurofibromatosis type 1) and 8505 (Thyroid) cells were grown and maintained in RPMI-1640 medium containing 100 U/mL penicillin-streptomycin and 10% fetal bovine serum. Cells were in growth medium in 96-well opaque-walled clear bottom plates and incubated in the CO2 incubator overnight before treatment. Cells were treated with compounds diluted in DMSO and a 10 point 3-fold serial dilutions were done. Plates were placed in 37° C., 5% CO2 to incubate for 3 days. Before they were developed by adding 100 μL of CellTiter-Glo reagent (Promega) to the assay plate, plates were shaken briefly for 2 mins and allowed to incubate at room temperature for 10 mins. The bottom of the plates was pasted with white back seal and luminescence was recorded with Flexstation3 with setting of luminescence, integration time 500 ms.
# Compounds of Formula (I), (II) and (III) are active in this assay as noted in Table 2.
row,Compound,IC50
1,Cn1cnc(-c2ccc(C3=CCN(C(=O)CN4CC[C@]5(CCN(c6ccc7[nH]nc(C8CCOCC8)c7n6)C5=O)C4)CC3)s2)n1 [Example 64],≤ 500 nM
2,CC(C)Oc1ccc(-c2n[nH]c3ccc(N4CC[C@]5(CCN(CC(=O)N6CC=C(c7ncc(-c8ncn(C)n8)s7)CC6)C5)C4=O)nc23)cc1F [Example 118],≤ 500 nM
3,COc1ccc(-c2n[nH]c3ccc(N4CC[C@]5(CCN(CC(=O)N6CCN(c7ccc(-c8ncn(C)n8)cn7)CC6)C5)C4=O)nc23)cn1 [Example 46],≤ 500 nM
4,CC(C)Oc1cnc(-c2n[nH]c3ccc(N4CC[C@]5(CCN(CC(=O)N6CC=C(c7ccc(-c8ncn(C)n8)cc7)CC6)C5)C4=O)cc23)c(F)c1 [Example 78],≥ 1000 nM
5,COc1ccc(-c2n[nH]c3ccc(N4CC[C@]5(CCN(CC(=O)N6CC=C(c7ccc(-c8ncn(C)n8)cc7)CC6)C5)C4=O)nc23)cn1 [Example 21],≤ 500 nM
6,Cn1cnc(-c2ccc(C3=CCN(C(=O)CN4CC[C@]5(CCN(c6ccc7[nH]nc(-c8ccc9c(c8)OC(C)(C)O9)c7n6)C5=O)C4)CC3)cc2)n1 [Example 62],500 to 1000 nM
7,CC(C(=O)N1CC=C(c2ncc(-c3ncn(C)n3)s2)CC1)N1CCC2(CCN(c3ccc4[nH]nc(-c5ccc(F)cc5)c4n3)C2=O)C1 (mixture of isomers) [Example 96],≥ 1000 nM
8,CC(C)Oc1ccc(-c2n[nH]c3ccc(N4CC[C@]5(CCN(CC(=O)N6CCN(c7ncc(-c8ncn(C)n8)s7)CC6)C5)C4=O)nc23)cn1 [Example 87],≤ 500 nM
9,CCn1cnc(-c2cnc(C3=CCN(C(=O)CN4CC[C@]5(CCN(c6ccc7[nH]nc(-c8ccc(OC(C)C)nc8)c7n6)C5=O)C4)CC3)s2)n1 [Example 88],≤ 500 nM
10,CC(C)Oc1ccc(-c2n[nH]c3ccc(N4CC[C@]5(CCN(CC(=O)N6CC=C(c7ccc(-c8ncn(C)n8)c(F)c7)CC6)C5)C4=O)nc23)cc1F [Example 117],≤ 500 nM
11,CC(C)Oc1ccc(-c2n[nH]c3ccc(N4CC[C@]5(CCN(CC(=O)N6CC=C(c7ccc(-c8ncn(CCN(C)C)n8)cc7)CC6)C5)C4=O)nc23)cn1 [Example 97],≤ 500 nM
12,CC(C)Oc1ccc(-c2n[nH]c3ccc(N4CCC5(CCN(CC(=O)N6CC=C(c7ccc(-c8ncn(C)n8)cc7)CC6)C5)C4=O)nc23)cn1 (stereo not shown) [Example 83],≤ 500 nM
13,CC(C)Oc1ccc(-c2n[nH]c3ccc(N4CCC5(CCN(CC(=O)N6CCN(c7ccc(-c8ncn(C)n8)cc7)CC6C)C5)C4=O)nc23)cn1 (mixture of isomers) [Example 85],≤ 500 nM
14,CC(C)Oc1ccc(-c2n[nH]c3ccc(N4CC[C@]5(CCN(CC(=O)N6CC=C(c7ccc(-c8ncn(C)n8)cc7)CC6)C5)C4=O)nc23)cc1F [Example 116],≤ 500 nM
15,CC(C)Oc1ccc(-c2n[nH]c3ccc(N4CC[C@]5(CCN(CC(=O)N6CC=C(c7ncc(-c8cn(C)cn8)s7)CC6)C5)C4=O)nc23)cn1 [Example 99],≤ 500 nM
16,CC(C)Oc1ccc(-c2n[nH]c3ccc(N4CC[C@]5(CCN(CC(=O)N6CCC(c7ncc(-c8ncn(C)n8)s7)CC6)C5)C4=O)nc23)cn1 [Example 86],≤ 500 nM
17,Cn1cnc(-c2ccc(C3=CCN(C(=O)CN4CC[C@]5(CCN(c6ccc7[nH]nc(-c8ccc(F)c(N9CCCC9)n8)c7c6)C5=O)C4)CC3)cc2)n1 [Example 119],500 to 1000 nM
18,Cc1n[nH]c2ccc(-c3n[nH]c4ccc(N5CC[C@]6(CCN(CC(=O)N7CC=C(c8ccc(-c9ncn(C)n9)cc8)CC7)C6)C5=O)nc34)cc12 [Example 100],≤ 500 nM
19,CC(C)Oc1ccc(-c2n[nH]c3ccc(N4CC[C@]5(CCN(CC(=O)N6CC=C(c7ccc(-c8cn(C)cn8)cc7)CC6)C5)C4=O)nc23)cn1 [Example 98],≥ 1000 nM
20,CC(C)Oc1ccc(-c2n[nH]c3ccc(N4CC[C@]5(CCN(CC(=O)N6CC=C(c7ncc(-c8ncn(C)n8)s7)CC6)C5)C4=O)nc23)cc1 [Example 94],≤ 500 nM
21,CC(C)Oc1ccc(-c2n[nH]c3ccc(N4CCC5(CCN(C(C)C(=O)N6CC=C(c7ncc(-c8ncn(C)n8)s7)CC6)C5)C4=O)nc23)cn1 (mixture of isomers) [Example 95],≥ 1000 nM
22,Cn1cnc(-c2cnc(C3=CCN(C(=O)CN4CC[C@]5(CCN(c6ccc7[nH]nc(-c8ccc(OC9CCC9)nc8)c7n6)C5=O)C4)CC3)s2)n1 [Example 90],≤ 500 nM
23,COc1ccc(F)c(-c2n[nH]c3ccc(N4CC[C@]5(CCN(CC(=O)N6CCC(c7ccc(-c8ncn(C)n8)cc7)CC6)C5)C4=O)cc23)n1 [Example 75],≤ 500 nM

# Same assay, conditions: Homo sapiens, A-375, 72 h, 3 days incubation, CellTiter-Glo luminescence
row,Compound,IC50
1,"CC(C)Nc1cc(-c2c[nH]c(C(=O)N[C@H](CO)c3cccc(Cl)c3)c2)c(Cl)cn1 [BVD-523, reference compound]",≤ 500 nM
2,CC(C)Oc1ccc(-c2n[nH]c3ccc(N4CC[C@]5(CCN(CC(=O)N6CC=C(c7ccc(-c8ncn(C)n8)cc7)CC6)C5)C4=O)nc23)cc1 [Example 103],≤ 500 nM
3,"Cn1cnc(-c2ccc(C3=CCN(C(=O)CN4CC[C@]5(CCN(c6ccc7[nH]nc(C8CCOCC8)c7n6)C5=O)C4)CC3)cc2)n1 [Example 22, (S)-7-(2-(4-(4-(1-Methyl-1H-1,2,4-triazol-3-yl)phenyl)-5,6-dihydropyridin-1(2H)-yl)-2-oxoethyl)-2-(3-(tetrahydro-2H-pyran-4-yl)-1H-pyrazolo[4,3-b]pyridin-5-yl)-2,7-diazaspiro[4.4]nonan-1-one]",≤ 500 nM
4,CC(C)n1cc(-c2n[nH]c3ccc(N4CC[C@]5(CCN(CC(=O)N6CC=C(c7ccc(-c8nn(C)c(=O)o8)cc7)CC6)C5)C4=O)cc23)cn1 [Example 31],≤ 500 nM
5,Cn1cnc(-c2ccc(C3=CCN(C(=O)CN4CC[C@]5(CCN(c6ccc7[nH]nc(-c8ccc(C#N)cc8)c7n6)C5=O)C4)CC3)cc2)n1 [Example 27],≤ 500 nM
6,Cc1ccc(-c2n[nH]c3ccc(N4CC[C@]5(CCN(CC(=O)N6CC=C(c7ccc(-c8nn(C)c(=O)o8)cc7)CC6)C5)C4=O)nc23)cn1 [Example 35],≤ 500 nM
7,CC(C)Oc1ccc(-c2n[nH]c3ccc(N4CC[C@]5(CCN(CC(=O)N6CC=C(c7ncc(-c8ncn(C)n8)s7)CC6)C5)C4=O)cc23)cc1 [Example 110],≤ 500 nM
8,COc1cc(-c2n[nH]c3ccc(N4CC[C@]5(CCN(CC(=O)N6CC=C(c7ccc(-c8ncn(C)n8)cc7)CC6)C5)C4=O)nc23)ccc1OC(C)C [Example 107],≤ 500 nM
9,CC(C)Oc1ccc(-c2n[nH]c3ccc(N4CC[C@]5(CCN(CC(=O)N6CC=C(c7ccc(-c8ncn(C)n8)cn7)CC6)C5)C4=O)nc23)cc1 [Example 104],≤ 500 nM
10,Cc1noc2ccc(-c3n[nH]c4ccc(N5CC[C@]6(CCN(CC(=O)N7CC=C(c8ccc(-c9ncn(C)n9)cc8)CC7)C6)C5=O)nc34)cc12 [Example 101],≤ 500 nM
11,CC(C)Oc1ccc(-c2n[nH]c3ccc(N4CC[C@]5(CCN(CC(=O)N6CCN(c7ccc(-c8ncn(C)n8)cc7)C[C@@H]6C)C5)C4=O)nc23)cn1 [Example 115],≤ 500 nM
12,"O=C(Nc1ccc2[nH]nc(-c3ccncc3)c2c1)[C@@H]1CCN(CC(=O)N2CCN(c3ccc(-c4ncccn4)cc3)CC2)C1 [SCH772984, reference compound]",≤ 500 nM
13,CC(C)n1cc(-c2n[nH]c3ccc(N4CC[C@]5(CCN(CC(=O)N6CC=C(c7ccc(-c8ncn(C)n8)cc7)CC6)C5)C4=O)nc23)ccc1=O [Example 111],≤ 500 nM
14,CC(C)Oc1ccc(-c2n[nH]c3ccc(N4CC[C@]5(CCN(CC(=O)N6CCN(c7ccc(-c8ncn(C)n8)cc7)C[C@H]6C)C5)C4=O)nc23)cn1 [Example 114],≥ 1000 nM
15,Cn1cnc(-c2cnc(C3=CCN(C(=O)CN4CC[C@]5(CCN(c6ccc7[nH]nc(C8CC8)c7n6)C5=O)C4)CC3)s2)n1 [Example 113],≤ 500 nM
16,Cc1ncc(-c2n[nH]c3ccc(N4CC[C@]5(CCN(CC(=O)N6CC=C(c7ccc(-c8ncn(C)n8)cc7)CC6)C5)C4=O)nc23)s1 [Example 30],≤ 500 nM
17,CC(C)Oc1ccc(-c2n[nH]c3ccc(N4CC[C@]5(CCN(CC(=O)N6CCN(c7ncc(-c8ncn(C)n8)s7)CC6)C5)C4=O)nc23)cc1 [Example 112],≤ 500 nM
18,"Cn1nccc1Nc1nccc(-c2ccn([C@H](CO)c3ccc(Cl)c(F)c3)c(=O)c2)n1 [GDC-0994, reference compound]",500 to 1000 nM
19,COc1cc(-c2n[nH]c3ccc(N4CC[C@]5(CCN(CC(=O)N6CC=C(c7ncc(-c8ncn(C)n8)s7)CC6)C5)C4=O)nc23)ccc1OC(C)C [Example 108],≤ 500 nM
20,CC(C)Oc1ccc(-c2n[nH]c3ccc(N4CC[C@]5(CCN(CC(=O)N6CC=C(c7ccc(-c8ncn(C)n8)nc7)CC6)C5)C4=O)nc23)cc1 [Example 105],500 to 1000 nM
21,CC(C)Oc1ccc(-c2n[nH]c3ccc(N4CC[C@]5(CCN(CC(=O)N6CC=C(c7ccc(-c8ncn(C)n8)cc7)CC6)C5)C4=O)cc23)cc1 [Example 109],≤ 500 nM

# Biological target: ERK2 (Homo sapiens (Human), UniProt P28482)
# Sequence (P28482 whole entry): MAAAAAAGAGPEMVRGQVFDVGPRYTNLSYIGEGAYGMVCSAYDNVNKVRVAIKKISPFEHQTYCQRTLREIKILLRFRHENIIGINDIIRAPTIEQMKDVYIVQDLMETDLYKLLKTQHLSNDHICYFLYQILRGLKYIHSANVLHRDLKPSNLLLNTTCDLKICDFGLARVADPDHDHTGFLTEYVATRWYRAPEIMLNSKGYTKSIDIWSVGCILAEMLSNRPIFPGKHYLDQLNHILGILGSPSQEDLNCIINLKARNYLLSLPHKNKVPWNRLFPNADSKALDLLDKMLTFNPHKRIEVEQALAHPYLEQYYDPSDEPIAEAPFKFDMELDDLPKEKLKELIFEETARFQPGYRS
# Assay: Active ERK1 and ERK2 Kinase Assay (Mobility Shift Assay)
# Assay type: biochemical
# Conditions: activated ERK2, Mobility Shift Assay
# Experimental: Activated ERK1 and ERK2 activity was determined in a Mobility Shift Assay (MSA) format as follows: Compound and kinase solution were prepared with assay buffer (20 mM HEPES, 0.01% Triton X-100, 2 mM DTT, pH7.5) and mixed and incubated in for 30 mins at rt. ERK1 & ERK2 were then activated by the addition of F1-Substrate, ATP and metal solution and incubated for 1 h at rt. After 1 h, the reaction was terminated by the addition of […] of Termination Buffer (QuickScout Screening Assist MSA; Carna Biosciences) to the well. The reaction mixture was applied to LabChip™ system (PerkinElmer), and the product and substrate peptide peaks were separated, analyzed and quantitated. The kinase reaction is evaluated by the product ratio calculated from peak heights of product (P) and substrate(S) peptides (P/(P+S)).
row,Compound,IC50
1,Cn1cnc(-c2ccc(C3=CCN(C(=O)CN4CC[C@]5(CCN(c6ccc7[nH]nc(C8CCOCC8)c7n6)C5=O)C4)CC3)s2)n1 [Example 64],≤ 50 nM
2,COc1ccc(-c2n[nH]c3ccc(N4CC[C@]5(CCN(CC(=O)N6CCN(c7ccc(-c8ncn(C)n8)cn7)CC6)C5)C4=O)nc23)cn1 [Example 46],≤ 50 nM
3,"Cn1cnc(-c2ccc(C3=CCN(C(=O)CN4CC[C@]5(CCN(c6ccc7[nH]nc(C8CCOCC8)c7n6)C5=O)C4)CC3)cc2)n1 [Example 22, (S)-7-(2-(4-(4-(1-Methyl-1H-1,2,4-triazol-3-yl)phenyl)-5,6-dihydropyridin-1(2H)-yl)-2-oxoethyl)-2-(3-(tetrahydro-2H-pyran-4-yl)-1H-pyrazolo[4,3-b]pyridin-5-yl)-2,7-diazaspiro[4.4]nonan-1-one]",≤ 50 nM
4,CC(C)n1cc(-c2n[nH]c3ccc(N4CC[C@]5(CCN(CC(=O)N6CC=C(c7ccc(-c8nn(C)c(=O)o8)cc7)CC6)C5)C4=O)cc23)cn1 [Example 31],≤ 50 nM
5,Cn1cnc(-c2ccc(C3=CCN(C(=O)CN4CC[C@]5(CCN(c6ccc7[nH]nc(-c8ccc(C#N)cc8)c7n6)C5=O)C4)CC3)cc2)n1 [Example 27],≤ 50 nM
6,COc1ccc(-c2n[nH]c3ccc(N4CC[C@]5(CCN(CC(=O)N6CC=C(c7ccc(-c8ncn(C)n8)cc7)CC6)C5)C4=O)nc23)cn1 [Example 21],≤ 50 nM
7,Cc1ccc(-c2n[nH]c3ccc(N4CC[C@]5(CCN(CC(=O)N6CC=C(c7ccc(-c8nn(C)c(=O)o8)cc7)CC6)C5)C4=O)nc23)cn1 [Example 35],≤ 50 nM
8,Cn1cnc(-c2ccc(C3=CCN(C(=O)CN4CC[C@]5(CCN(c6ccc7[nH]nc(-c8ccc9c(c8)OC(C)(C)O9)c7n6)C5=O)C4)CC3)cc2)n1 [Example 62],≤ 50 nM

# From patent US10934304B2, “Spirocyclic compounds” (Recurium IP Holdings, LLC, priority 2016, dated 2021)
